Data on four molecules can be found in ChEMBL document CHEMBL3997849, “Modulation of the Inhibitors of Apoptosis Proteins (IAPs) Activities for Cancer Treatment” (ACS Med Chem Lett, 2017).

The nature of experiment [1]: Inhibition of His-tagged XIAP BIR2-3 (125 to 356 residues) C202A/C213G double mutant (unknown origin) using fluorescein labeled SMAC peptide as substrate after 60 mins by HTRF assay. Details: species or system Homo sapiens. Background: Time-resolved FRET reads energy transfer from a long-lived donor to a nearby acceptor.
In experiment [2] the target is E3 ubiquitin-protein ligase XIAP (Homo sapiens, UniProt P98170). Description: Inhibition of His-tagged XIAP BIR3 (241 to 356 residues) (unknown origin) using fluorescein labeled SMAC peptide as substrate after 60 mins by HTRF assay.
Sequence of E3 ubiquitin-protein ligase XIAP (P98170 whole entry, the tested form may be a part): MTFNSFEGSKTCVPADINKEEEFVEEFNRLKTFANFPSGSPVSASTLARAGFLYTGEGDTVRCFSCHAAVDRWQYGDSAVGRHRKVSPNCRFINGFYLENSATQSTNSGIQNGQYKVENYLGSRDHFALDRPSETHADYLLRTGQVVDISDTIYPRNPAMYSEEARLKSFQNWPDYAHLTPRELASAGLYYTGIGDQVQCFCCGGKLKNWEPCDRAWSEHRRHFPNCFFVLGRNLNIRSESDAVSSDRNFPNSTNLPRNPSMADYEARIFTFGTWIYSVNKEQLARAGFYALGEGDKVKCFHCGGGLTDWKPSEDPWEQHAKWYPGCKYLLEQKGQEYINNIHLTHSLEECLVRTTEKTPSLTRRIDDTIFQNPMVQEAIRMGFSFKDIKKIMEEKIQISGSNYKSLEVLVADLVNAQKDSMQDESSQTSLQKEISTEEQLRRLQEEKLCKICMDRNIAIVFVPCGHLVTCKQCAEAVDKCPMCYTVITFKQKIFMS

As a reminder, the IC50 is the midpoint of a concentration-inhibition curve. A high value points to weaker potency in that assay. In experiment [1], `CN[C@@H](C)C(=O)N[C@H](C(=O)N[C@@H](Cc1ccc([C@H]2C[C@@H](C(=O)N[C@@H]3CCCc4ccccc43)N(C(=O)[C@@H](NC(=O)[C@H](C)NC)C(C)(C)C)C2)cc1)C(=O)N[C@@H]1CCCc2ccccc21)C(C)(C)C` returned an IC50 of 6.8 nM. In other words, the single-digit nanomolar range.
`CN[C@@H](C)C(=O)N[C@H](C(=O)N1C[C@@H](c2ccc(CC(NC(=O)[C@@H](NC(=O)[C@H](C)NC)C(C)(C)SCC(=O)NC(CO)CO)C(=O)N[C@@H]3CCCc4ccccc43)cc2)C[C@H]1C(=O)N[C@@H]1CCCc2ccccc21)C(C)(C)C` (stereo partly specified): the IC50 in experiment [2] is 1.4 nM; in experiment [1], 8.1 nM.
As to `CN[C@@H](C)C(=O)N[C@H](C(=O)N1C[C@@H](c2ccc(C[C@H](NC(=O)[C@@H](NC(=O)[C@H](C)NC)C(C)(C)SCC(=O)N(C)C[C@@H](O)CO)C(=O)N[C@@H]3CCCc4ccccc43)cc2)C[C@H]1C(=O)N[C@@H]1CCCc2ccccc21)C(C)(C)C`, in experiment [1], inhibition was half-maximal at 12.3 nM (IC50).
Turning to `CN[C@@H](C)C(=O)N[C@H](C(=O)NC(Cc1ccc(NC(=O)c2ccc(C(=O)NC3C[C@@H](C(=O)N[C@@H]4CCCc5ccccc54)N(C(=O)[C@@H](NC(=O)[C@H](C)NC)C(C)(C)C)C3)cc2)cc1)C(=O)N[C@@H]1CCCc2ccccc21)C(C)(C)C` (stereo partly specified), the results for the IC50 in experiment [2] and in experiment [1] were 119 nM and 9.5 nM, respectively.
